Test results from PMC8597046, “Use of Mixture Dosing and Nonlinear Mixed Effect Modeling of Eight Environmental Contaminants in Rabbits to Improve Extrapolation Value of Toxicokinetic Data” (Environmental Health Perspectives, 2021).
Read-outs that look alike come from different tables or passages of the source.

Experiments:
[1] = TK assay, intravenous mixture dosing: serum concentrations and noncompartmental analysis (sparse data); conditions: for concentration at 167.92 h: rabbit 8, 167.92 h; for concentration at 671.96 h: rabbit 10, 671.96 h; for concentration at 672 h: rabbit 11, 672.00 h; for concentration at 671.83 h: rabbit 12, 671.83 h; for Serum concentration: IV
In short: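 Female New Zealand white rabbits received a compound mixture IV via ear-vein catheter; serum sampled sparsely (3 rabbits/time point) from 15 min to 28 d. Noncompartmental sparse-data analysis on mean profiles: linear-trapezoidal AUC, CL as dose/AUC0−inf, half-life from λZ, MRT and VSS.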

[2] = Nonlinear mixed effect (NLME) compartmental modeling of merged IV and oral serum concentrations; conditions: for AUCVO/dose: oral dosing; for Volume(s) of the peripheral compartment: for PFOA first peripheral compartment
In short: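 Rabbit serum concentrations after IV and oral dosing fitted jointly by NLME compartmental modeling (−2LL minimization, Laplacian or QRPEM), exponential between-subject variability, combined additive/proportional error. CL, V2, Q, VZ, AUC (Dose/CL) and terminal half-life derived from population primary parameters.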

[3] = rodents, cited from earlier work
[4] = female, New Zealand white (INRA 1777 line), rabbit, in vivo, iv
[5] = female, New Zealand white (INRA 1777 line), rabbit, in vivo, iv, VSS, IV mixture dosing, NCA, n=12
[6] = female, New Zealand white (INRA 1777 line), rabbit, in vivo, iv, VZ, IV mixture dosing, NCA, n=12
[7] = female, New Zealand white, rabbit, in vivo, iv, Serum concentration, rabbit 1, 24.03 h
[8] = female, New Zealand white, rabbit, in vivo, iv, Serum concentration, rabbit 2, […]
[9] = female, New Zealand white, rabbit, in vivo, iv, Serum concentration, rabbit 3, […]
[10] = female, New Zealand white, rabbit, in vivo, iv, Serum concentration, rabbit 4, 72.00 h
[11] = female, New Zealand white, rabbit, in vivo, iv, Serum concentration, rabbit 5, 72.03 h
[12] = female, New Zealand white, rabbit, in vivo, iv, Serum concentration, rabbit 6, 71.97 h
[13] = female, New Zealand white, rabbit, in vivo, iv, Serum concentration, rabbit 7, 168.00 h
[14] = female, New Zealand white, rabbit, in vivo, iv, Serum concentration
[15] = female, New Zealand white, rabbit, in vivo, iv, Serum concentration, rabbit 9, 168.00 h
[16] = female, New Zealand white (INRA 1777 line), rabbit, in vivo
[17] = female, New Zealand white (INRA 1777 line), rabbit, in vivo, po, Oral bioavailability (F), NLME model
[18] = female, New Zealand white, rabbit, in vivo
[19] = female, New Zealand white, rabbit, in vivo, population secondary parameter, mean
[20] = female, New Zealand white, rabbit, in vivo, iv
[21] = female, New Zealand white, rabbit, in vivo, po
[22] = female, New Zealand white, rabbit, in vivo, po, Bioavailability, population secondary parameter, mean, as fraction
[23] = population primary parameter, typical value, mean
[24] = population primary parameter, typical value, mean, MEHP after oral DEHP
[25] = population secondary parameter, mean

## O=C(O)C(F)(F)C(F)(F)C(F)(F)C(F)(F)C(F)(F)C(F)(F)C(F)(F)F [PFOA, perfluorooctanoic acid]
[1]; [4]
  AUC(0-inf): 27.4 µM·h
  Cmax: 2330 nM
  MRT: 18.7 h
  clearance: 0.121 mL/min/kg
  half-life: 31.8 h
[1]; [5]
  Vd: 0.135 L/kg
[1]; [6]
  Vd: 0.332 L/kg
[1]; female, New Zealand white, rabbit, in vivo, iv, Serum concentration, rabbit 1, 0.30 h
  concentration at 0.3 h: 1870 nM
[1]; female, New Zealand white, rabbit, in vivo, iv, Serum concentration, rabbit 1, 4.38 h
  concentration at 4.38 h: 1070 nM
[1]; [7]
  concentration at 24.03 h: 240 nM
[1]; female, New Zealand white, rabbit, in vivo, iv, Serum concentration, rabbit 2, 0.28 h
  concentration at 0.28 h: 2100 nM
[1]; female, New Zealand white, rabbit, in vivo, iv, Serum concentration, rabbit 2, 4.05 h
  concentration at 4.05 h: 1020 nM
[1]; [8]
  concentration at 24 h: 160 nM
[1]; female, New Zealand white, rabbit, in vivo, iv, Serum concentration, rabbit 3, 0.35 h
  concentration at 0.35 h: 2330 nM
[1]; female, New Zealand white, rabbit, in vivo, iv, Serum concentration, rabbit 3, 4.05 h
  concentration at 4.05 h: 1450 nM
[1]; [9]
  concentration at 24 h: 290 nM
[1]; female, New Zealand white, rabbit, in vivo, iv, Serum concentration, rabbit 4, 0.62 h
  concentration at 0.62 h: 1700 nM
[1]; [10]
  concentration at 72 h: 60 nM
[1]; female, New Zealand white, rabbit, in vivo, iv, Serum concentration, rabbit 5, 0.75 h
  concentration at 0.75 h: 1860 nM
[1]; [11]
  concentration at 72.03 h: 34 nM
[1]; female, New Zealand white, rabbit, in vivo, iv, Serum concentration, rabbit 6, 0.57 h
  concentration at 0.57 h: 1670 nM
[1]; [12]
  concentration at 71.97 h: 31 nM
[1]; female, New Zealand white, rabbit, in vivo, iv, Serum concentration, rabbit 7, 11.98 h
  concentration at 11.98 h: 840 nM
[1]; [13]
  concentration at 168 h: 5.3 nM
[1]; female, New Zealand white, rabbit, in vivo, iv, Serum concentration, rabbit 8, 12.02 h
  concentration at 12.02 h: 520 nM
[1]; [14]
  concentration at 167.92 h: 4.3 nM
  concentration at 671.96 h: < 0.24 nM
  concentration at 672 h: < 0.24 nM
  concentration at 671.83 h: < 0.24 nM
[1]; female, New Zealand white, rabbit, in vivo, iv, Serum concentration, rabbit 9, 11.97 h
  concentration at 11.97 h: 590 nM
[1]; [15]
  concentration at 168 h: 3 nM
[2]; PFOA 3-compartments model
  tvK13 (distribution rate constant): 0.0039 h⁻¹
  tvK31 (distribution rate constant): 0.0080 h⁻¹
[2]; PFOA three-compartment model, second peripheral compartment
  Volume(s) of the peripheral compartment, second value: 0.049 L/kg
[2]; [16]
  Vd: 0.19 L/kg
  k el: 2.08e-05 s⁻¹
[2]; [17]
  bioavailability: 100%
[2]; [18]
  MRT: 25 h
  half-life: 92 h
[2]; [19]
  clearance: < 0.167 mL/min/kg
[2]; [20]
  AUC: 26 µM·h
[2]; [21]
  AUC: 128 µM·h
[2]; [22]
  bioavailability: 100%
[2]
  AUCVO/dose: 133 μmol×h/L per μmol/kg BW
[2]; [23]
  tvK12 (distribution rate constant): 0.047 h⁻¹
  tvK21 (distribution rate constant): 0.127 h⁻¹
  tvVc (volume of the central compartment): 0.101 L/kg
[2]; [24]
  tvKabs (rate constant of absorption): 1.408 h⁻¹
[2]; [25]
  Volume(s) of the peripheral compartment: 0.037 L/kg
[3]; ref Kudo and Kawashima 2003
  Intestinal absorption: 93%

## Brc1ccc(Oc2ccc(Br)cc2Br)c(Br)c1 [BDE-47, 2,2′,4,4′-tetrabromodiphenyl ether]
[1]; [4]
  AUC(0-inf): 42.2 µM·h
  Cmax: 1820 nM
  MRT: 86.9 h
  clearance: 3.83 mL/min/kg
  half-life: 162 h
[1]; [5]
  Vd: 20.3 L/kg
[1]; [6]
  Vd: 54.8 L/kg
[1]; [7]
  concentration at 24.03 h: 120 nM
[1]; [8]
  concentration at 24 h: 140 nM
[1]; [9]
  concentration at 24 h: 130 nM
[1]; [10]
  concentration at 72 h: 56 nM
[1]; [11]
  concentration at 72.03 h: 63 nM
[1]; [12]
  concentration at 71.97 h: 42 nM
[1]; [13]
  concentration at 168 h: 31 nM
[1]; [14]
  concentration at 167.92 h: 25 nM
  concentration at 671.96 h: 3.9 nM
  concentration at 672 h: 5.3 nM
  concentration at 671.83 h: 2.8 nM
[1]; [15]
  concentration at 168 h: 37 nM
[1]; female, New Zealand white, rabbit, in vivo, iv, Serum concentration, rabbit 10, 0.67 h
  concentration at 0.67 h: 1990 nM
[1]; female, New Zealand white, rabbit, in vivo, iv, Serum concentration, rabbit 11, 0.77 h
  concentration at 0.77 h: 1770 nM
[1]; female, New Zealand white, rabbit, in vivo, iv, Serum concentration, rabbit 12, 0.60 h
  concentration at 0.6 h: 1820 nM
[2]; [16]
  Vd: 45 L/kg
  k el: 1.8e-05 s⁻¹
[2]; [17]
  bioavailability: > 85%
[2]; [18]
  MRT: 133 h
  half-life: 163 h
[2]; [19]
  clearance: 5.67 mL/min/kg
[2]; [20]
  AUC: 29 µM·h
[2]; [21]
  AUC: 71 µM·h
[2]; [22]
  bioavailability: 96%
[2]
  AUCVO/dose: 2.97 μmol×h/L per μmol/kg BW
[2]; [23]
  tvK12 (distribution rate constant): 0.0697 h⁻¹
  tvK21 (distribution rate constant): 0.009154 h⁻¹
  tvVc (volume of the central compartment): 5.188 L/kg
[2]; [24]
  tvKabs (rate constant of absorption): 0.02289 h⁻¹
[2]; [25]
  Volume(s) of the peripheral compartment: 39 L/kg
[3]; ref Staskal et al. 2005
  Intestinal absorption: 82%

## O=S(=O)(c1ccc(O)cc1)c1ccc(O)cc1 [BPS, bisphenol S]
[1]; IV mixture dosing, NCA, n=12
  CL: 72.5 mL/min/kg
  MRT: 1.26 h
[1]; rabbit 1, 0.30 h
  Serum concentration: 2080 nM
[1]; rabbit 1, 4.38 h
  Serum concentration: 25 nM
[1]; rabbit 1, 24.03 h
  Serum concentration: < 4 nM
[1]; rabbit 2, 0.28 h
  Serum concentration: 4060 nM
[1]; rabbit 2, 4.05 h
  Serum concentration: 29 nM
[1]; rabbit 3, 0.35 h
  Serum concentration: 3380 nM
[1]; rabbit 3, 4.05 h
  Serum concentration: 65 nM
[1]; rabbit 4, 0.62 h
  Serum concentration: 1030 nM
[1]; rabbit 4, 8.33 h
  Serum concentration: 22 nM
[1]; rabbit 4, 72.00 h
  Serum concentration: < 4 nM
[1]; rabbit 5, 0.75 h
  Serum concentration: 1230 nM
[1]; rabbit 5, 8.62 h
  Serum concentration: 15 nM
[1]; rabbit 5, 72.03 h
  Serum concentration: < 4 nM
[1]; rabbit 6, 0.57 h
  Serum concentration: 1840 nM
[1]; rabbit 6, 7.98 h
  Serum concentration: 22 nM
[1]; rabbit 6, 71.97 h
  Serum concentration: < 4 nM
[1]; rabbit 7, 1.13 h
  Serum concentration: 370 nM
[1]; rabbit 7, 11.98 h
  Serum concentration: 8.5 nM
[1]; rabbit 8, 1.12 h
  Serum concentration: 290 nM
[1]; rabbit 8, 12.02 h
  Serum concentration: 6 nM
[1]; rabbit 9, 1.03 h
  Serum concentration: 410 nM
[1]; rabbit 9, 11.97 h
  Serum concentration: 7.4 nM
[1]; rabbit 11, 2.08 h
  Serum concentration: 110 nM
[1]; rabbit 12, 2.08 h
  Serum concentration: 200 nM
[1]; serum, IV mixture dosing, NCA, n=12
  AUC0−inf: 2.41 µM·h
[1]; serum, IV mixture dosing, NCA, n=12, doses in Table 2 r3, BPSG after BPS dosing
  Cmax: 4060 nM
[2]; dosing time to infinity after intravenous dosing, population secondary parameter
  AUCIV: 3.3 µM·h
[2]; dosing time to infinity after oral dosing, population secondary parameter, MEHP after oral DEHP
  AUCVO: 3.6 µM·h
[2]; fixed to 10, estimation of Kabs converging toward infinity
  tvKabs (rate constant of absorption), fixed: 10 h⁻¹
[2]; oral, dose-normalised AUC
  Oral systemic exposure: 0.20 μmol/h/L per μmol/kg BW
[2]; [23]
  tvK10 (elimination rate constant from the central compartment): 1.895 h⁻¹
  tvVc (volume of the central compartment): 1.681 L/kg
[2]; [25]
  MRT: 6.3 h
